The values that follow come from paper PMC4923153, “Protection of Primary Dopaminergic Midbrain Neurons by GPR139 Agonists Supports Different Mechanisms of MPP^+ and Rotenone Toxicity” (Frontiers in Cellular Neuroscience, 2016).

For one assay, the target named is T1, human GPR139 receptor (Homo sapiens, UniProt Q6DWJ6).
T1 construct: expressed in transfected cells; host or cells: CHO-K1
T1 sequence (Q6DWJ6 1-353): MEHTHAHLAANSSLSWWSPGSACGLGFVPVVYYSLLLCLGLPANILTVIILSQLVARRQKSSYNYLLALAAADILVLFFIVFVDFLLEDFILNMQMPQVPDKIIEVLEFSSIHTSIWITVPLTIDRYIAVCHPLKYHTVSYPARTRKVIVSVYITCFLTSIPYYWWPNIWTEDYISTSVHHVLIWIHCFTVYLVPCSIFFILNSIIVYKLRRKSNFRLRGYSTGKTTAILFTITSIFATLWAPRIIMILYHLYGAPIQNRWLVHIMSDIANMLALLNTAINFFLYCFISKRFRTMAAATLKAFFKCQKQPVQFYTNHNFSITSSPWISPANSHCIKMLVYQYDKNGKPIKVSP
The experiment in a line: GPR139 calcium mobilization assay (CHO-K1 cells stably expressing the receptor). Format: cell-based. To be noted: Ca2+ mobilization, determined as described (Shi et al., 2011); read-out: EC50 (GPR139 agonist). As to the method: EC50 and IC50 for all compounds were determined as described (Shi et al., [2011]).
All compounds were further characterized using GPR139-based Ca^2+ mobilization assays (Figure 5).
Figure 5 Additional characterization of GPR139 compounds using kinetic fluorescence measurements and concentration-response determination in calcium mobilization assays. (A–D) Examples for the kinetic of relative fluorescence units (RFU) for compound 1 and 4 and related controls, involving a two-step addition protocol. (A) Cellular fluorescence response to addition of buffer (approximately at time 0:00 min) and a second addition of buffer at 3:20 min. (B) Cellular fluorescence response to addition of the Ca^2+ ionophore and reference compound for complete release of Ca^2+ from intracellular stores, ionomycin. (C) Cellular response to addition of 10 μM compound 1 at time 0:00. (D) Cellular fluorescence in response to antagonist compound 4 (at 0:00, 50 μM) and addition of agonist compound 1 at EC85 concentration. […]
Standard molecular cloning techniques were used to generate Chinese hamster ovary (CHO-K1) cells stably expressing the human GPR139 receptor. […] Calcium flux was measured using a Hamamatsu FDSS7000 imaging-based plate reader (Hamamatsu Photonics) using 480 nm excitation light and emitted fluorescent light passed through a 525 nm emission filter and detected by a CCD camera. […]
Background: Calcium assays in cells follow changes in intracellular calcium, usually with a dye or a luminescent sensor.

Assay [1] has as its target norepinephrine transporter (Homo sapiens, UniProt P23975). Description: Inhibition of binding to the norepinephrine transporter (cross reactivity). To be noted: concentration not given. On the procedure: None of the compounds were useful in vivo tools due to their unfavorable ADME properties including low whole brain exposure and brain/plasma ratio (Shi et al., [2011]). Cross reactivity with the DAT or the norepinephrine transporter was determined as described (Shi et al., [2011]).
As both 6-OHDA and MPP^+ are taken up via the DAT, it was not likely that the agonists mediated their protection against MPP^+ by merely blocking the DAT. However, to further exclude the possibility that the protection against MPP^+ by the agonist compound 3 is mediated by blocking MPP^+ uptake, rather than signaling through GPR139, DA and noradrenaline uptake in the presence of the agonist was tested. […] Ten micrometres (10 μM) compound 1 inhibited binding to the DAT or the norepinephrine transporter by 4% or −8%, respectively (Shi et al., [2011]) compound 2 inhibited binding to the DAT or the norepinephrine transporter 2% or −4%, respectively.

For orientation: EC50 means the concentration giving half of the maximal effect.

norepinephrine transporter, sequence (P23975 whole entry, species assumed): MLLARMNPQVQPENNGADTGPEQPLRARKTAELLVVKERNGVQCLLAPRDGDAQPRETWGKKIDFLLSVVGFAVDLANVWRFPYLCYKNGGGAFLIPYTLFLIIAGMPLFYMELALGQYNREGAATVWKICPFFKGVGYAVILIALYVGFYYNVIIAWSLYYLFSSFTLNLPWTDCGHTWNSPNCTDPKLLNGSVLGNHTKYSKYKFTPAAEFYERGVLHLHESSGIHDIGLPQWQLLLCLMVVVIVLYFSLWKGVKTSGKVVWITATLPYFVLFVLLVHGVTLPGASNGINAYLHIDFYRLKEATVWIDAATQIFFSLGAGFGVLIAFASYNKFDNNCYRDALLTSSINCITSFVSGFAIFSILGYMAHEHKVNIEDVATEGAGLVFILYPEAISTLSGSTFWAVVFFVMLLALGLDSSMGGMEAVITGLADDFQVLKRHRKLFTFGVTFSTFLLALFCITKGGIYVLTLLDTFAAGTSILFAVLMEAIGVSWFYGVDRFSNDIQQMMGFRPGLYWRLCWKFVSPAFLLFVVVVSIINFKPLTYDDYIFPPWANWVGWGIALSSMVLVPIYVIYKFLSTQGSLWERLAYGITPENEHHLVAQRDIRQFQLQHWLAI

On to `CN(C)C1CCN(C(=O)CNC(=O)Cc2cccc3ccccc23)C1` (centres unmarked) [compound 2, N-[2-(3-Dimethylamino-pyrrolidin-1-yl)-2-oxo-ethyl]-2-Naphthalen-1-yl-acetamide], for which the EC50 on human GPR139 receptor came to 530 nM. Besides, the “inhibition of binding to the norepinephrine transporter” value in assay [1] is −4%.
